Reference: publication PMC11939259, “Antiparasitic and Antifungal Activities of Cetyl-Maritima, a New N-Cetyl-Modified Maritima Derivative” (Antibiotics, 2025)
Several values for one entry are separate records, joined by “and”; a condition that tells them apart may be missing. Equal entries are not always repeated. Where two headings read alike, the source gives them in different places.

How the values were obtained:
[1] = system: M. mycetomatis fungal strain MM55; assay: M. mycetomatis MM55 in vitro susceptibility, MTS metabolic activity; format: cell-based, Madurella mycetomatis; details: for Metabolic activity upon treatment at 25 μM / Metabolic activity upon treatment at 100 μM: ± SD
Method: The M. mycetomatis MM55 isolate obtained from a patient and identified and maintained in the Erasmus Medical Centre, Rotterdam, The Netherlands, was applied for the investigation of the in vitro susceptibility of the test compounds as reported previously [94]. In short, the fungal isolate was cultured on Sabouraud agar for 2 weeks at 37 °C, after which the mycelium was transferred in colorless RPMI 1640 medium supplemented with L-glutamine (0.3 g/L; Capricorn-Scientific, Ebsdorfergrund, Germany), morpholinepropanesulfonic acid (MOPS, 20 mM, Sigma, St. Louis, MO, USA), and chloramphenicol (100 mg/L, Oxoid, Basingstroke, UK). The mycelium was sonicated for 10 s at 10 μm with a probe sonicator (Soniprep, Beun de Ronde, Abcoude, The Netherlands) to obtain a hyphal suspension, after which the hyphal suspension was cultured for another week at 37 °C. The suspension was then collected by centrifugation (5 min, 3400 rpm) and washed with PBS followed by the addition of fresh RPMI 1640 medium, after which the mycelia was again sonicated for 10 s at 10 μm with a probe sonicator. The hyphal suspension was diluted to a transmission of 70% at 660 nm (Novaspec II; Pharmacia Biotech, Uppsala, Sweden). Then, 100 μL of the suspension was added to each well of a 96-wells plate (Costar 3799, Fisher Scientific, Breda, The Netherlands) that contained 1 μL of each compound sample. Compounds were initially evaluated at concentrations of 100 μM and 25 μM.
For the final metabolic activity evaluation, a viability dye named MTS, 3-(4,5-dimethylthiazol-2-yl)-5-(3-carboxymethoxyphenyl)-2-(4-sulfophenyl)-2H-tetrazolium salt, was applied as described in a previous study [64]. The following formula was used: Percentage metabolic activity=Absorbance test490nm−Absorbance NC490nm/Absorbance GC490nm−Absorbance NC490nm∗100
The growth control (GC) refers to the fungal isolate only and indicates 100% metabolic activity.

[2] = system: T. gondii RH strain tachyzoites; assay: T. gondii growth inhibition in infected Vero cells (infection index); format: cell-based, Toxoplasma gondii
Method: Cells of the Vero cell line (ATCC® CCL81™, Manassas, VA, USA) were used to cultivate T. gondii RH strain tachyzoites. The effects of test compounds on T. gondii growth were investigated according to previously published methods. Vero cells were maintained in complete RPMI 1640 medium supplemented with 10% heat-inactivated FBS, under a humidified atmosphere containing 5% CO2 at 37 °C. The cells were seeded in 96-well plates at a density of 5 × 10^3 cells/well (see also Figure S7) in 200 μL of RPMI 1640 medium and incubated at 37 °C with 5% CO2 for 24 h. Following incubation, the medium was discarded, and cells were washed with PBS. Subsequently, RPMI 1640 medium containing 2% FBS and T. gondii tachyzoites was added at a ratio of 5 parasite cells to 1 Vero cell. After 5 h incubation at 37 °C and 5% CO2, cells were washed with PBS and processed as outlined below.
Control: RPMI 1640 medium with 0.8% DMSO.
Experimental: RPMI 1640 medium containing test compounds (dissolved in DMSO) at concentrations of 90, 30, 10, 3.3, 1.1, 0.37, and 0.12 μg/mL. Atovaquone (ATO) was used as positive control.
Cells were incubated at 37 °C and 5% CO2 for 72 h, washed with PBS, fixed in 10% formalin, and stained with 1% toluidine blue. The infection index, defined as the number of infected cells out of 200 examined cells, was determined using an inverted photomicroscope.
The percentage of inhibition was calculated using the following equation:Inhibition (%) = [(I Control − I Experimental)/I Control] × 100 where “I Control” is the infection index of untreated cells, and “I Experimental” is the infection index of cells treated with test compounds.

[3] = system: Vero monkey kidney cells; assay: Vero cell cytotoxicity (MTT); format: cell-based; details: Primates, 72 h, ± S.D
Method: MTT assays were performed to assess the cytotoxicity of the test compounds. Vero cells and isolated macrophages were seeded in 96-well plates at a density of 5 × 10^3 cells per well in 200 μL of RPMI 1640 medium with 10% FBS and incubated at 37 °C with 5% CO2 for 24 h. After incubation, cells were washed with PBS and treated with test compounds at varying concentrations (90, 30, 10, 3.3, 1.1, 0.37, and 0.12 μg/mL) in 10% FBS medium for 72 h. Negative control wells contained cells treated with medium in 2% FBS without test compounds (see also raw data in Table S5). After treatment, the supernatant was removed, and 50 μL of RPMI 1640 medium containing 14 μL of MTT solution (5 mg/mL) was added. The cells were incubated for an additional 4 h. Following incubation, the supernatant was discarded, and 200 μL of DMSO was added to dissolve the formazan crystals. The absorbance was measured at 540 nm using a FLUOstar OPTIMA spectrophotometer (BMG LABTECH, Ortenberg, Germany). […] IC50 values were determined from three independent experiments.

[4] = system: L. major promastigotes; assay: L. major promastigote viability (MTT); format: cell-based; details: Leishmania major, 72 h, read-out: IC50 Promastigotes
[5] = system: L. major intramacrophageal amastigotes; assay: L. major intramacrophageal amastigote assay (Giemsa, infected macrophages); format: cell-based, Leishmania major; details: for IC50: Leishmania major, Macrophage, 72 h, read-out: IC50 Amastigotes
Method: Promastigotes of L. major were isolated from a patient in February 2016 and cultured at 26 °C in Schneider’s Drosophila medium (Invitrogen, Carlsbad, CA, USA) supplemented with 10% heat-inactivated fetal bovine serum (FBS, Invitrogen, USA) and antibiotics. Cultures were maintained in tissue culture flasks with weekly transfers. The promastigotes were cryopreserved in liquid N2 at a concentration of 3 × 10^6 parasites/mL. Virulent L. major parasites were maintained by serial passage in BALB/c mice through hind footpad injections of 1 × 10^6 stationary-phase promastigotes, and amastigotes were isolated after 7 weeks. Isolated amastigotes were converted to promastigotes by culturing at 26 °C in Schneider’s medium with antibiotics and 10% FBS. Amastigote-derived promastigotes, with fewer than five in vitro passages, were used for infection experiments.
(§1) For amastigote activity assays, peritoneal macrophages were collected from BALB/c mice (7 weeks old) by aspiration. Cells (5 × 10^4 cells/well) were seeded into 96-well plates (see also Figure S7) with phenol red-free RPMI 1640 medium containing 10% FBS and incubated at 37 °C with 5% CO2 for 4 h to allow adhesion. After discarding the medium and washing with PBS, 200 μL of L. major promastigotes in RPMI 1640 medium (10 promastigotes per macrophage) were added. Plates were incubated at 37 °C with 5% CO2 for 24 h to promote macrophage infection and amastigote differentiation. Unattached promastigotes were removed by washing with PBS (three times), and fresh phenol red-free RPMI 1640 medium containing test compounds (90, 30, 10, 3.3, 1.1, 0.37, and 0.12 μg/mL) was added. Cultures were incubated at 37 °C in 5% CO2 for 72 h. […] After incubation, cells were fixed and Giemsa-stained, and the percentage of infected macrophages was determined microscopically. IC50 values were calculated from three independent experiments. The isolation of parasites and macrophages was performed strictly following the rules and guidelines of the responsible committee of research ethics, Deanship of Scientific Research, Qassim University, Kingdom of Saudi Arabia (permission number 20-03-20).

[6] = system: peritoneal macrophages; assay: Macrophage cytotoxicity (MTT); format: cell-based, BALB/c mice; details: Mus musculus, 72 h, read-out: IC50 Macrophages
Method: as §1, with “The isolation of parasites and macrophages was performed strictly following the rules and guidelines of the responsible committee of research ethics, Deanship of Scientific Research, Qassim University, Kingdom of Saudi Arabia (permission number 20-03-20).” left out
MTT assays were performed to assess the cytotoxicity of the test compounds. […] The absorbance was measured at 540 nm using a FLUOstar OPTIMA spectrophotometer (BMG LABTECH, Ortenberg, Germany). […] IC50 values were determined from three independent experiments.

[7] = system: M. mycetomatis fungal strain MM55; design: method as in PMID 37067830; details: positive control, cited from earlier work
[8] = system: eumycetoma; design: method as in PMID 38690871, PMID 38935904, PMID 39098321; details: eumycetoma patients, conditions of a clinical trial, combined with surgery; cited from earlier work
[9] = Madurella mycetomatis, read-out: IC50

CCCCCCCCCCCCCCCC[n+]1ccccc1C [C2PicBr]
Metabolic activity upon treatment at 25 μM [1]: 8.7 ± 0.8% | Metabolic activity upon treatment at 100 μM [1]: 4.5 ± 0.8% | IC50 [1, 9]: 16.1 µM

CCCCCCCCCCCCCCCC[n+]1ccc(C)cc1 [C4PicBr]
Metabolic activity upon treatment at 25 μM [1]: 18.4 ± 17.7% | Metabolic activity upon treatment at 100 μM [1]: 5.0 ± 0.8% | IC50 [1, 9]: 16.1 µM

CCCCCCCCCCCCCCCC[n+]1ccc(CCC=C(C)CCC=C(C)C)cc1.[Br-] [Cetyl-Maritima, 1-Hexadecyl-4-(4,8-dimethyl-3,7-nonadienyl)-pyridinium Bromide]
IC50 [1]: 8.2 µM | Metabolic activity upon treatment at 25 μM [1]: 12.2 ± 6.9% | Metabolic activity upon treatment at 100 μM [1]: 13.1 ± 2.0% | IC50 ([1]; Madurella mycetomatis): ~8 µM | SI selectivity index (Vero/T. gondii) [2]: 1.3 | IC50 ([2]; 72 h; ± S.D): 8.6 ± 1.2 µM | IC50 ([2]; Toxoplasma gondii, Vero, 72 h; ± S.D): ~8 µM | IC50 [3]: 11.4 ± 1.3 µM | IC50 [4]: 1.5 ± 0.2 µM | SI selectivity index (macrophages/L. major amastigotes) [5]: 7.2 | SI selectivity index, Vero kidney cells vs L. major amastigotes [5]: 19 | IC50 [5]: 0.6 ± 0.2 µM | IC50 [6]: 4.3 ± 0.5 µM

CCCCCCCCCCCCCCCC[n+]1ccc(/C=C/c2ccc(N(C)C)cc2)cc1 [DAMS-16]
Metabolic activity upon treatment at 25 μM [1]: 56.9 ± 69.3% | Metabolic activity upon treatment at 100 μM [1]: 25.4 ± 4.3% | IC50 [1, 9]: 16 µM

CCC(C)n1ncn(-c2ccc(N3CCN(c4ccc(OCC5COC(Cn6cncn6)(c6ccc(Cl)cc6Cl)O5)cc4)CC3)cc2)c1=O (stereo not drawn) [Itraconazole, itraconazole]
Metabolic activity upon treatment at 25 μM ([7]; 25 μM, ± SD): −1.04 ± 2.37% | Metabolic activity upon treatment at 100 μM ([7]; 100 μM, ± SD): 2.34 ± 4.49% | IC50 [7]: 0.09 µM | cure rate [8]: > 70%

CC(C)=CCCC(C)=CCCc1ccncc1 [Maritima, 4-(4,8-dimethyl-3,7-nonadienyl)-pyridine]
Metabolic activity upon treatment at 25 μM [1]: 54% and 54.3 ± 7.5% | Metabolic activity upon treatment at 100 μM [1]: 13.8 ± 33.8% | IC50 ([2]; Toxoplasma gondii, Vero; 72 h; ± S.D): > 314 µM | IC50 [3]: > 314 µM | IC50 ([4]; ± S.D): > 314 µM | IC50 ([5]; intramacrophageal, ± S.D): > 314 µM | IC50 ([6]; ± S.D): > 314 µM

CCCCCCCCCCCCCCCC[n+]1ccc(/C=C/c2cc(OC)c(OC)c(OC)c2)cc1 [TMP-16]
Metabolic activity upon treatment at 25 μM [1]: 13.3 ± 1.5% | Metabolic activity upon treatment at 100 μM [1]: 19.1 ± 1.1% | IC50 [1, 9]: 18.2 µM

C[C@@H](c1nc(-c2ccc(C#N)cc2)cs1)[C@@](Cn1cncn1)(OCOP(=O)(O)O)c1ccc(F)cc1F [fosravuconazole]
cure rate [8]: > 70%

Dichlorido(η^6-p-cymene)[4-(4,8-dimethyl-3,7-nonadienyl)-pyridine]ruthenium(II) [Ru-Maritima]
Metabolic activity upon treatment at 25 μM [1]: 155% and 155.7 ± 22.2% | Metabolic activity upon treatment at 100 μM [1]: −6.6 ± 12.2%
